Where two headings read alike, the source gives them in different places.
Columns and labels:
[1] = 7 days
Procedure: (§1) 1.5 g of a cosmetic solvent (Capric/Caprylic Triglyceride (Mygliol 318) and C12-15 Alkylbenzoate (Finsolv TN)) is saturated with the respective Benzotriazol-derivative by adding 0.2 g portions while stirring at room temperature. The saturated solution is stirred for 7 days at room temperature. 1 ml of the supernatant is centrifuged and filtered in order to obtain a clear solution. The concentration of the Benzotriazol-derivative is determined by means of HPLC.

[2] = Determination of the solubility in cosmetic solvents; conditions: saturated solution stirred 7 days at room temperature, HPLC; for solubility Finsolv TN: C12-15 Alkylbenzoate; for solubility Myritol 318: Capric/Caprylic Triglyceride
Procedure: as §1

Row | Compound | solubility Finsolv TN [1] [%] | solubility Myritol 318 [1] [%] | solubility Finsolv TN [2] [%] | solubility Myritol 318 [2] [%]
1 | CCCCC(CC)COCc1cc(C)cc(-n2nc3ccccc3n2)c1O (stereo not drawn) [Example 2, 2-(2H-Benzotriazol-2-yl)-6-(2-ethylhexyloxymethyl)-4-methyl-phenol] | 64 | 66 | – | –
2 | Cc1cc(COCCC(C)C)c(O)c(-n2nc3ccccc3n2)c1 [Example 6, 2-(2H-Benzotriazol-2-yl)-6-(3-methyl-butoxymethyl)-4-methyl-phenol] | – | – | 37 | 36
3 | CCCCC(CC)C(=O)OCc1cc(C)cc(-n2nc3ccccc3n2)c1O (stereo not drawn) [Example 8, 2-Ethyl-hexanoic acid 3-(2H-benzotriazol-2-yl)-2-hydroxy-5-methyl-benzyl ester] | – | – | 42 | 24
4 | Cc1cc(COC(=O)CC(C)C)c(O)c(-n2nc3ccccc3n2)c1 [Example 9, 3-Methyl-butyric acid 3-(2H-benzotriazol-2-yl)-2-hydroxy-5-methyl-benzyl ester] | – | – | 8 | 6
5 | CCCCC(CC)COCc1cc(C)cc(-n2nc3ccc(Cl)cc3n2)c1O (stereo not drawn) [Example 12, 2-(5-Chloro-benzotriazol-2-yl)-6-(2-ethylhexyloxymethyl)-4-methyl-phenol] | – | – | 19 | 12
6 | Cc1cc(CO)c(O)c(-n2nc3ccccc3n2)c1 [Example 14, 2-(2H-Benzotriazol-2-yl)-6-hydroxymethyl-4-methyl-phenol] | – | – | 0.02 | 0.01
